Nine compounds from ChEMBL document CHEMBL3991601, “The target landscape of clinical kinase drugs” (Science, 2017) can be followed below.

For one assay, the target named is T1, Aurora kinase A (Homo sapiens, UniProt O14965).
T1 sequence (O14965 whole entry): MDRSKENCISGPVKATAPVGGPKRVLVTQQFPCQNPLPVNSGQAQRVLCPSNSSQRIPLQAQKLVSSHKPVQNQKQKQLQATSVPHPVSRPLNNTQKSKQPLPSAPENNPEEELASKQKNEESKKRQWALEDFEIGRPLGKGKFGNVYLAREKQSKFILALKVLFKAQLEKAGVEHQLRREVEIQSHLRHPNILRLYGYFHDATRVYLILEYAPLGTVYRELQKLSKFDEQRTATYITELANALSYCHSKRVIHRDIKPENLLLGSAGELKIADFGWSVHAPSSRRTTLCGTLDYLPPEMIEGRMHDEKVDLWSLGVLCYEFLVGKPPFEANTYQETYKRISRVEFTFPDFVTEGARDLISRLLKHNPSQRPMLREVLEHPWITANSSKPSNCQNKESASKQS

For assay [1], the target named is Calcium/calmodulin-dependent protein kinase type II subunit delta (Homo sapiens, UniProt Q13557).
Calcium/calmodulin-dependent protein kinase type II subunit delta, sequence (Q13557 whole entry): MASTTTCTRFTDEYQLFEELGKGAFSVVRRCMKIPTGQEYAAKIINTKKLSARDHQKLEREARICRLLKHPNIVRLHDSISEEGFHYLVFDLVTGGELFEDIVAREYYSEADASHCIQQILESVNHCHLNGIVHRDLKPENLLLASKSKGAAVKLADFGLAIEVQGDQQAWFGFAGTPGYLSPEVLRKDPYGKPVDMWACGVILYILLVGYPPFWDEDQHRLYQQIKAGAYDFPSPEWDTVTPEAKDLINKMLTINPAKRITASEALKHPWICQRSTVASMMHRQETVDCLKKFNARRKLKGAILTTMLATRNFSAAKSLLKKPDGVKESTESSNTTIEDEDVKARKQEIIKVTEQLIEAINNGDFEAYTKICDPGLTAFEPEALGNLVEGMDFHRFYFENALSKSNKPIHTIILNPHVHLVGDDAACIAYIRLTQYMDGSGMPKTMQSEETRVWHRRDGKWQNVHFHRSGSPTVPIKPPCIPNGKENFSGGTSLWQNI
Assay [2] has as its target Cyclin-dependent kinase 7 (Homo sapiens, UniProt P50613).
The target in assay [3] is Casein kinase I isoform epsilon (Homo sapiens, UniProt P49674).
Casein kinase I isoform epsilon, sequence (P49674 whole entry, canonical isoform): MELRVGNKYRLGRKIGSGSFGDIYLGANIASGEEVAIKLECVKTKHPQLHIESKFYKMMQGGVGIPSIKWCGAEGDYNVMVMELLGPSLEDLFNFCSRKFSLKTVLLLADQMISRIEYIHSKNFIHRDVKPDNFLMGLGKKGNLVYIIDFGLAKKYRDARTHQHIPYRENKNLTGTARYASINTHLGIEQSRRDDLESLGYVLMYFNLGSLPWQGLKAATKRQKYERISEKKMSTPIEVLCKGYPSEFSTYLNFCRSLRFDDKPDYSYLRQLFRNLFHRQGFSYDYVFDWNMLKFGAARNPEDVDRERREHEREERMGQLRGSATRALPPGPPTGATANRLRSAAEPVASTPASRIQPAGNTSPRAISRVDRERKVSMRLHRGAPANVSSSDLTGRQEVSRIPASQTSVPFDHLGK
In assay [4] the target is T2, Eukaryotic translation initiation factor 5B (Homo sapiens, UniProt O60841).
T2 sequence (O60841 whole entry): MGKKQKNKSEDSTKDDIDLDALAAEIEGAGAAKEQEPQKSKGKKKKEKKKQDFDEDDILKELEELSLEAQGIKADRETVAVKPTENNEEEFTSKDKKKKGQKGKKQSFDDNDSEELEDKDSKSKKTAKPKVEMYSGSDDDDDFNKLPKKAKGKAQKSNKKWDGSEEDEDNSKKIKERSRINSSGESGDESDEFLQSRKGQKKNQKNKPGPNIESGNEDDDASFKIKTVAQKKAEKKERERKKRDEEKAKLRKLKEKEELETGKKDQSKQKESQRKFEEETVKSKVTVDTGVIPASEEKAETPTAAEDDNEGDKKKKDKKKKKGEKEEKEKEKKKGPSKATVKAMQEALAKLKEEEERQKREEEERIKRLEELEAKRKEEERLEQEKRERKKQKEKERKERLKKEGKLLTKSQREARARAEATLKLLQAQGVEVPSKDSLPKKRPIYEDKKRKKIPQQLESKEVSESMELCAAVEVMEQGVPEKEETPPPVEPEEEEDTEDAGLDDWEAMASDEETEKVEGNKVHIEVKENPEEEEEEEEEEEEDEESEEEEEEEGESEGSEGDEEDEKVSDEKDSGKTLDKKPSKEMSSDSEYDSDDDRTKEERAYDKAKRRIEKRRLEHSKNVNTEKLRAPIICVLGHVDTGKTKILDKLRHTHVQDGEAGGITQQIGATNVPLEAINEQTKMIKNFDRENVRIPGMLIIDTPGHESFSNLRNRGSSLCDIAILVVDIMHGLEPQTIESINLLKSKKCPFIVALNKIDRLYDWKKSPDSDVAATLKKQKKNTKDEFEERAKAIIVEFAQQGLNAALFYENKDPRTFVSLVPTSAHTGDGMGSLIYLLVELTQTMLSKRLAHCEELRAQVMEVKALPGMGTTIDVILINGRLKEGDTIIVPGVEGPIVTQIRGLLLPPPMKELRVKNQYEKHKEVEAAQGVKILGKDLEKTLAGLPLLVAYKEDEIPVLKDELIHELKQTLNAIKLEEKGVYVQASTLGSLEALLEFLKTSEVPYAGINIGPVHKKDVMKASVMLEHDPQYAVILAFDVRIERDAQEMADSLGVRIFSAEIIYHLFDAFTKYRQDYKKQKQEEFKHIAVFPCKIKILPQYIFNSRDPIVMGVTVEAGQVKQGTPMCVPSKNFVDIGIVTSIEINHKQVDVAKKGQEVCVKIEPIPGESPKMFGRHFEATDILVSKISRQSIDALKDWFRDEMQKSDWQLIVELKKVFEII

The target in assay [5] is Serine/threonine-protein kinase/endoribonuclease IRE1 (Homo sapiens, UniProt O75460).
Serine/threonine-protein kinase/endoribonuclease IRE1, sequence (O75460 whole entry): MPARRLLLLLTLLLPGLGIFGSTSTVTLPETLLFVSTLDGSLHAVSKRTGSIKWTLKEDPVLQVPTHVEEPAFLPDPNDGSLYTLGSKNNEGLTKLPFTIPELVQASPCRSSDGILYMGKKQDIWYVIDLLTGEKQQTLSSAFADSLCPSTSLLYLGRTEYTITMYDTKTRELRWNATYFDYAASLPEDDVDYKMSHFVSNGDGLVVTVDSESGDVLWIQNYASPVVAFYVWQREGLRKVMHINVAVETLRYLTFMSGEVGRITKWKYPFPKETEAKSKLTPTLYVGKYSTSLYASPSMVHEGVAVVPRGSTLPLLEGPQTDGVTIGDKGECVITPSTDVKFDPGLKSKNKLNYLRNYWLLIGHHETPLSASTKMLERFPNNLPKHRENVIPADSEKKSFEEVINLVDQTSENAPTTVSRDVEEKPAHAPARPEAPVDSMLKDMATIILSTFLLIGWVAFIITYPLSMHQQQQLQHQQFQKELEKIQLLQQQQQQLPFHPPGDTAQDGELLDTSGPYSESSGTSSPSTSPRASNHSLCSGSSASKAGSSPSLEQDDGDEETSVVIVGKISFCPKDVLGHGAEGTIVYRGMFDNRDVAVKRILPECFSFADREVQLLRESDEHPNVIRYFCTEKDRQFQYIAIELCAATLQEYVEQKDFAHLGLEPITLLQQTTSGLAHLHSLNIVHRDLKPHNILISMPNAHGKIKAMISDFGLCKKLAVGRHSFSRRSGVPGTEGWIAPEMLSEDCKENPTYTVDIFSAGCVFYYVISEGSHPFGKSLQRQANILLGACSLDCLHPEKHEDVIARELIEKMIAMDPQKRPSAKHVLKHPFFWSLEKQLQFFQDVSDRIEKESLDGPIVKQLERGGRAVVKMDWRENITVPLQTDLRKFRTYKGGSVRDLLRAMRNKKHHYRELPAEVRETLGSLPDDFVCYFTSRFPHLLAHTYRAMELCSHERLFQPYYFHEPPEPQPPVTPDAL
Assay [6] deals with Putative heat shock protein HSP 90-beta 2 (Homo sapiens, UniProt Q58FF8).
Putative heat shock protein HSP 90-beta 2, sequence (Q58FF8 whole entry, canonical isoform): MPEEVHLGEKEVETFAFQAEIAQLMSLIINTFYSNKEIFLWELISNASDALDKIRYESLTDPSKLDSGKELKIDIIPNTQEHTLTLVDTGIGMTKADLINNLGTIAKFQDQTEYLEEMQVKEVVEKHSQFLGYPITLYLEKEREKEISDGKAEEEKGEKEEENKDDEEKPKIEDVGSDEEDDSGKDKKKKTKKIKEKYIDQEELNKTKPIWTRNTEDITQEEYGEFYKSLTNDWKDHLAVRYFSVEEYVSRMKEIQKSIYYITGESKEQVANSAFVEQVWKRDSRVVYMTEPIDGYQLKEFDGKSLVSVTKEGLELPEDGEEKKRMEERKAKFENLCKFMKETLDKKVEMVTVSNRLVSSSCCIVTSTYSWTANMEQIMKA
Assay [7] has as its target T3, Phosphorylase b kinase gamma catalytic chain, liver/testis isoform (Homo sapiens, UniProt P15735).
T3 sequence (P15735 whole entry): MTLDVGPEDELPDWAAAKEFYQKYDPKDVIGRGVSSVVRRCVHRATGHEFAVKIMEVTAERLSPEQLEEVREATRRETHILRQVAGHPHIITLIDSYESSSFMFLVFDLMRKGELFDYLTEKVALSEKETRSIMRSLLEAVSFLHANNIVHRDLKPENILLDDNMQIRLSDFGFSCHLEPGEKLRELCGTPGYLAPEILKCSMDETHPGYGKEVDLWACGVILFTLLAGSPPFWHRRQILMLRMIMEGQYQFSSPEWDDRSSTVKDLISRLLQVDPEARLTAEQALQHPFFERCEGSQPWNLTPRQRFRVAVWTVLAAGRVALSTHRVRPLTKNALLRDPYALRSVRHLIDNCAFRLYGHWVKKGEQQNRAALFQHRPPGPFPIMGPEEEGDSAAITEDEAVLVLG

Assay [8] concerns the target Serine/threonine-protein kinase N1 (Homo sapiens, UniProt Q16512).
For assay [9], the target named is TRAF2 and NCK-interacting protein kinase (Homo sapiens, UniProt Q9UKE5).
TRAF2 and NCK-interacting protein kinase, sequence (Q9UKE5 whole entry): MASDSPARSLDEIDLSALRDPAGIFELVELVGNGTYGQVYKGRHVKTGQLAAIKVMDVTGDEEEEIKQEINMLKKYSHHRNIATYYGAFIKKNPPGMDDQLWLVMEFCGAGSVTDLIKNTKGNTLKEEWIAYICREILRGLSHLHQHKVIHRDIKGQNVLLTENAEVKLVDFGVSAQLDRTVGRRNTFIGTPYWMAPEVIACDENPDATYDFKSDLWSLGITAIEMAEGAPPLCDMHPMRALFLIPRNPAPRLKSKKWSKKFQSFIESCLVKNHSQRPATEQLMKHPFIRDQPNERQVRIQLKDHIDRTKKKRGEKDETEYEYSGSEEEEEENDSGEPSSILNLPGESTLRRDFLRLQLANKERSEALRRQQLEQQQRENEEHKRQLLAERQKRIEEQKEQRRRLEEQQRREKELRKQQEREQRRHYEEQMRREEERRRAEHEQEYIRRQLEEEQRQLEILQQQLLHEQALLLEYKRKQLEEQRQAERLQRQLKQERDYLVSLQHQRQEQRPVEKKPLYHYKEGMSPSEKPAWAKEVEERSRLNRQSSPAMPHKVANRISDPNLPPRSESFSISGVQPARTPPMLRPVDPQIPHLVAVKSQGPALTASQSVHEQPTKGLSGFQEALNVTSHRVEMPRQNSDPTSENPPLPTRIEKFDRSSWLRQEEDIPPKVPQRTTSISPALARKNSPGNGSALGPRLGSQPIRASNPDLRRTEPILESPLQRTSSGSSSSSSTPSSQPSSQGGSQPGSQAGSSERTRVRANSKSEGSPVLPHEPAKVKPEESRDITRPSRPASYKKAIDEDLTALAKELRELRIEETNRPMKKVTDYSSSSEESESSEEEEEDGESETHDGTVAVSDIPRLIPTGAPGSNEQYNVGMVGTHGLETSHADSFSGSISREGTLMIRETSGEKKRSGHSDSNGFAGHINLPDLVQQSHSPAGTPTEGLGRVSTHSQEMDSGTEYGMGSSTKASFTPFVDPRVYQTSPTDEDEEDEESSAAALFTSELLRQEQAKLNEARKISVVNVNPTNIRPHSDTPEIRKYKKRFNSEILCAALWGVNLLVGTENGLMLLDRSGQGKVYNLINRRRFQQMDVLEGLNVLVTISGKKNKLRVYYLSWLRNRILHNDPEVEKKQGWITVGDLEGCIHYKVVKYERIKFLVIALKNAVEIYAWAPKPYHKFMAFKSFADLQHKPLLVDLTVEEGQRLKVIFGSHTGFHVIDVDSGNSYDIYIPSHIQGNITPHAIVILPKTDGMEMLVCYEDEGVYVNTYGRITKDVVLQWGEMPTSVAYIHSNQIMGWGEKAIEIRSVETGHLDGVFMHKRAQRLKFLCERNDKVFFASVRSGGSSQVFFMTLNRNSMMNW
In assay [10] the target is T4, Uncharacterized protein FLJ45252 (Homo sapiens, UniProt Q6ZSR9).
T4 sequence (Q6ZSR9 whole entry): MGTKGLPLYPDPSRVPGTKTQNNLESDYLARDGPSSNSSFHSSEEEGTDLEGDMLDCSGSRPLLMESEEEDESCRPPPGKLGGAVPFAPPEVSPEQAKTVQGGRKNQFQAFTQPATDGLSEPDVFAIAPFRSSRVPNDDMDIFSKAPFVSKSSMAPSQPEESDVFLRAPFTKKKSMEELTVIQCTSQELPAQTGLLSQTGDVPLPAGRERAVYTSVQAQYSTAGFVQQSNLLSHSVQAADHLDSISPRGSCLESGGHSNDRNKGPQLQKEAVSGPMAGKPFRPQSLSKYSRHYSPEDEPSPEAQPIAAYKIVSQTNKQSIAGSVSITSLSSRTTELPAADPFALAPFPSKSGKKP
The following applies: read-out: Kd apparent; k-562, colo 205, sk-n-be(2) and mv-4-11.

Structures are written as SMILES. Activity calls are given as the source filed them. For most assays here, no stated cut-off is given here; in the data, actives have a measured Kd and inactives only a lower limit. Bounds are passed on as bounds.

Serine/threonine-protein kinase N1, sequence (Q16512 whole entry): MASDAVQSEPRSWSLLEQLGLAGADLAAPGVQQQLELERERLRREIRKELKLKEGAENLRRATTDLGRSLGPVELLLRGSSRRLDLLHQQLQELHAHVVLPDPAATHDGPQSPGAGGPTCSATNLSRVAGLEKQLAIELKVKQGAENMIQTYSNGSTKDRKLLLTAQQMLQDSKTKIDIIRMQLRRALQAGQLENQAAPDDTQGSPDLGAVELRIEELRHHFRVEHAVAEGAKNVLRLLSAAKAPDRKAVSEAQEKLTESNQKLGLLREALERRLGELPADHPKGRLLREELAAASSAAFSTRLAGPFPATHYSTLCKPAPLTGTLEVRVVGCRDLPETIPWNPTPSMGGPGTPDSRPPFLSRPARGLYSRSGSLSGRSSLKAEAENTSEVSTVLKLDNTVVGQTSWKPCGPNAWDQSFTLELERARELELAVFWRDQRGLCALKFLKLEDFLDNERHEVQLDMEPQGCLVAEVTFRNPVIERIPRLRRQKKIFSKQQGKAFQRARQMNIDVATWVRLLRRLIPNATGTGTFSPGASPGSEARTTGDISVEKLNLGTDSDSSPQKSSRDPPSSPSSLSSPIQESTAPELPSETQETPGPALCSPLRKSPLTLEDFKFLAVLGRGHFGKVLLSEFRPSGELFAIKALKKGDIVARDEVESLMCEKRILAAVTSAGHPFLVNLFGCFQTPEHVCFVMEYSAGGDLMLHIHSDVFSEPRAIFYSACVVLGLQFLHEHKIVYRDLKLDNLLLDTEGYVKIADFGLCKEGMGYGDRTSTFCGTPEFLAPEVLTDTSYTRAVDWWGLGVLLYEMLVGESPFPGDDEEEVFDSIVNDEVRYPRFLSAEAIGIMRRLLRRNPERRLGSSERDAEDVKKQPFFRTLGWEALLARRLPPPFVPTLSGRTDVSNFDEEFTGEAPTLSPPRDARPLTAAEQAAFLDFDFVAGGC
Cyclin-dependent kinase 7, sequence (P50613 whole entry, canonical isoform): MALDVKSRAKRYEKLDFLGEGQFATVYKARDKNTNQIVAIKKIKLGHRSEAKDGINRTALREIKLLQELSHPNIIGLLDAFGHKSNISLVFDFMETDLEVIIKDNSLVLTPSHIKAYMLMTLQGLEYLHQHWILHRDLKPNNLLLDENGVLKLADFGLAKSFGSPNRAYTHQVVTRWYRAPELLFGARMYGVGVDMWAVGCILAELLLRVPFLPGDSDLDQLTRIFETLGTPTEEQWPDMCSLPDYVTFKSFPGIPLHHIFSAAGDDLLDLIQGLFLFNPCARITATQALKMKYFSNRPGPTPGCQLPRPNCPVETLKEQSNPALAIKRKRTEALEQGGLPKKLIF

In the case of `COc1ncc(-c2ccc3nccc(-c4ccnnc4)c3c2)cc1NS(=O)(=O)c1ccc(F)cc1F` [OMIPALISIB], the Kd (on Aurora kinase A; in [1]; in [2]; in assay [3]; in assay [4]; in assay [5]) was > 30 µM (inactive) throughout. Also, the Kd in assay [6], in assay [7], in assay [8], in [9] and in [10] was > 30 µM (inactive) throughout.

For `CCCCCCCCCCCCCCCCCCOP(=O)([O-])OC1CC[N+](C)(C)CC1` [PERIFOSINE], the Kd (on Aurora kinase A; in [1]; in [2]; in assay [3]; in assay [4]; in assay [5]) was > 30 µM (inactive) each time. Further, the Kd in assay [6], in assay [7], in assay [8], in assay [9] and in [10] was > 30 µM (inactive) in each case.

Take `Cc1cnc(NC(=O)Nc2cc(Br)c(C)cc2OC[C@@H]2CNCCO2)cn1` [RABUSERTIB]: the Kd (at Aurora kinase A; in assay [1]; in [2]; in assay [3]; in [4]; in [5]) was > 30 µM (inactive) in each case. In addition, the Kd in assay [6], in [7], in [8], in [9] and in assay [10] was > 30 µM (inactive) in each case.

With `N#CC1(c2ccc(NC(=O)c3cccnc3NCc3ccncc3)cc2)CCCC1` [RIVOCERANIB], the Kd (on Aurora kinase A; in assay [1]; in assay [2]; in assay [3]; in assay [4]; in [5]) was > 30 µM (inactive) each time. For the same compound, the Kd in assay [6], in assay [7], in [8], in assay [9] and in assay [10] was > 30 µM (inactive) in each case.

As for `O=c1[nH]ccc2cc(OC3CCNCC3)ccc12` [SAR-407899 FREE BASE], the Kd (at Aurora kinase A; in [1]; in assay [2]; in assay [3]; in assay [4]; in [5]) was > 30 µM (inactive) throughout. The Kd in assay [6] was > 30 µM (inactive); in assay [7], > 30 µM (inactive); in assay [8] it was 0.019 µM (active); in assay [9] it was > 30 µM (inactive); in assay [10], 0.013 µM (active).

With `Cn1cc(-c2cnn3c(N)c(Br)c([C@@H]4CCCNC4)nc23)cn1` [SCH-900776], the Kd (on Aurora kinase A; in assay [1]; in assay [2]; in assay [3]; in assay [4]; in assay [5]) was > 30 µM (inactive) each time. Besides, the Kd in [6], in assay [7], in assay [8], in [9] and in assay [10] was > 30 µM (inactive) throughout.

Consider `CO[C@H]1C[C@@H]2CC[C@@H](C)[C@@](O)(O2)C(=O)C(=O)N2CCCC[C@H]2C(=O)O[C@H]([C@H](C)C[C@@H]2CC[C@@H](O)[C@H](OC)C2)CC(=O)[C@H](C)/C=C(\C)[C@@H](O)[C@@H](OC)C(=O)[C@H](C)C[C@H](C)/C=C/C=C/C=C/1C` [SIROLIMUS], for which the Kd (on Aurora kinase A; in assay [1]; in assay [2]; in [3]; in [4]; in assay [5]) was > 30 µM (inactive) in each case. The Kd in [6], in assay [7], in [8], in assay [9] and in assay [10] was > 30 µM (inactive) throughout.

Turning to `CO[C@H]1C[C@@H]2CC[C@@H](C)[C@@](O)(O2)C(=O)C(=O)N2CCCC[C@H]2C(=O)O[C@H]([C@H](C)C[C@@H]2CC[C@@H](OC(=O)C(C)(CO)CO)[C@H](OC)C2)CC(=O)[C@H](C)/C=C(\C)[C@@H](O)[C@@H](OC)C(=O)[C@H](C)C[C@H](C)/C=C/C=C/C=C/1C` [TEMSIROLIMUS], the Kd (on Aurora kinase A; in assay [1]; in [2]; in assay [3]; in assay [4]; in [5]) was > 30 µM (inactive) in each case. In addition, the Kd in assay [6], in [7], in assay [8], in [9] and in assay [10] was > 30 µM (inactive) throughout.

For the compound `O=C(Cc1ccc(-c2ccc(OCCN3CCOCC3)cc2)cn1)NCc1ccccc1` [TIRBANIBULIN], the Kd (at Aurora kinase A; in assay [1]; in [2]; in assay [3]; in assay [4]; in assay [5]) was > 30 µM (inactive) in each case. Further, the Kd in assay [6], in assay [7], in [8], in assay [9] and in assay [10] was > 30 µM (inactive) throughout.
